Experimental data as given in US20120076776A1, “METHOD FOR TREATING INFLAMATION BY LYMPHOCYTE DEPLETION OR SEQUESTERING” (priority 2010, published 2012).

Assays:
[1] = test system: immune-related genes in liver tissue; experiment: QRT-PCR gene transcript expression in liver tissue at necropsy; conditions: FTY720 n=7 vs control n=5
[2] = test system: experimental hemorrhagic shock induced by porcine liver injury; experiment: Liver injury hemorrhagic shock model: survival, blood loss, hemodynamics; format: in vivo, Yorkshire (Sus scrofa domestica) swine; conditions: FTY720 0.3 mg/kg 15 min after liver injury
Method: Male and female 3-12 month Yorkshire (Sus scrofa domestica) swine weighing 25-35 kg were acquired from ABI farms (Donsboro, Pa.). Feed was withheld 12 hours before surgery. Prior to surgery, animals were sedated and anesthesia induced with intramuscular ketamine hydrochloride (12-20 mg/kg of weight) and xylazine (2.2 mg/kg of weight) as well as atropine sulfate (0.05 mg/kg of weight) to decrease tracheal secretions. Mask ventilation with Isoflurane (5.0%) was used to facilitate endotracheal intubation. Pigs were ventilated (Ohmeda 7800 series ventilator, Datex, Madison, Wis.) at 12-15 breaths/min and tidal volume 10 mL/kg. Anesthesia was maintained with Isoflurane (1.5-2.5%) in 21-25% O2.
Following adequate anesthesia the right external and internal jugular veins and carotid artery were isolated. A 9Fr dual-lumen, tunneled Hickman catheter was placed in the external jugular vein for drug infusion and blood collection during the survival period. […] Rectal temperature was monitored continuously. […]
All animal groups underwent a standardized liver injury and resuscitation protocol. […] Bleeding was spontaneous and removed continually via suction and quantified by weight. […]
After a total of 2 hours, the pre-hospital phase was completed and hospital arrival was simulated. […] The abdomen was reopened, residual blood suctioned, sponges collected, and blood loss quantified by weight. […]

[3] = test system: renal transplant IRI; conditions: rat, in vivo; cited from earlier work
[4] = test system: lung tissue neutrophils (MPO+); experiment: MPO immunohistochemistry of lung tissue at necropsy; format: in vivo, Yorkshire (Sus scrofa domestica) swine; conditions: FTY720 0.3 mg/kg
Method: Immunohistochemical detection of MPO was performed on sections of formalin fixed, paraffin embedded blocks of swine lung. Antigen retrieval was performed using Proteinase K (DAKO, Carpenteria Calif.) for 30 minutes. Polyclonal rabbit, anti-human MPO (DAKO, Carpenteria Calif.) was used at a ready to use dilution and incubated at room temperature for 30 minutes. Envision, anti-rabbit (DAKO, Carpenteria Calif.) was applied as a secondary antibody for 30 minutes at room temperature. The chromogen applied was 3,3′ Diaminobenzidine (DAKO, Carpenteria, Calif.) for 10 minutes. The sections were counterstained with Hematoxylin (DAKO, Carpenteria, Calif.). External negative control was processed identically as with MPO but the primary antibody was substituted with normal rabbit serum. […] Cells with appropriate nuclear morphology and the presence of light to intensely reactive granules were counted; 5 random 40× fields were assessed.
Immunohistochemical detection of MPO was performed on sections of formalin fixed, paraffin embedded blocks of lung tissue. […] Polyclonal rabbit, anti-human MPO (DAKO, Carpenteria Calif.) was used at a ready to use dilution and incubated at room temperature for 30 minutes. […] Cells with appropriate nuclear morphology and the presence of light to intensely reactive granules were counted; 5 random 40× fields were assessed.

[5] = test system: peripheral neutrophils; experiment: Peripheral neutrophil counts during hemorrhage and reperfusion; format: in vivo, Yorkshire (Sus scrofa domestica) swine; conditions: FTY720 0.3 mg/kg; reperfusion period
Method: All functional laboratory assays were performed at 37° C., consistent with recorded normothermic animal temperatures (37.5±0.9° C.). Blood samples were collected at 0, 15, 30, 60, 90, and 120 minutes during the hemorrhage period and at 18, 24, 36, 48, and 72 hours during the survival period. Complete blood count with differentiation was performed with a cell counter (NDvia120 Hematology System, Siemens, Deerfield, Ill.).
Blood samples were collected at 0, 15, 30, 60, 90, and 120 minutes during the hemorrhage period and at 18, 24, 36, 48, and 72 hours during the survival period. Complete blood counts with differentiation were obtained using a cell counter (NDvia120 Hematology System, Siemens, Deerfield, Ill.).

[6] = test system: central lymphocytes (CD3+); experiment: CD3 immunohistochemistry of mesenteric lymph node and spleen at necropsy (ACIS); format: in vivo, Yorkshire (Sus scrofa domestica) swine; conditions: FTY720 0.3 mg/kg; both mesenteric lymph node and spleen at necropsy
Method: Immunohistochemical detection of CD3 was performed on sections of formalin fixed, paraffin embedded blocks of swine lymph node and spleen. Antigen retrieval was performed using Trilogy (Cell Marque, Rocklin, Calif.) for 30 minutes. Rat, anti-human CD3, monoclonal antibody (AbD Serotec, Raleigh, N.C.) was used at a dilution of 1:50 and incubated overnight at 4 C. Biotinylated goat anti-rat IgG specific polyclonal antibody (BD Biosciences, San Jose, Calif.) was applied as a secondary antibody at a 1:100 dilution for 30 minutes at room temperature. The chromogen applied was 3, 3′ Diaminobenzidine (DAKO, Carpenteria, Calif.) for 10 minutes. The sections were counterstained with Hematoxylin (DAKO, Carpenteria, Calif.). External negative controls were processed identically as CD3 but the primary antibody was substituted with normal rat serum. […] An Automated Cellular Imaging System (ACIS) was used to quantify the CD3 immunohistochemistry staining. By using the ACIS system, CD3 immunohistochemical staining could be specifically quantitated by determining how much brown (positive CD3 immunohistochemical reaction) was in the image compared to the amount of blue (hematoxylin nuclear counterstain).
Tissue slides were deparaffinized using xylene followed by graded baths of ethanol. […] An Automated Cellular Imaging System (ACIS) was used to quantify the CD3 immunohistochemistry staining. […]

[7] = test system: IRI; conditions: various animal models; cited from earlier work

Compound: CCCCCCCCc1ccc(CCC(N)(CO)CO)cc1 [FTY720]
- BCL-2 transcript expression in liver vs control [1]: up-regulated
- FAS transcript expression in liver vs control [1]: down regulated
- HSP70 transcript expression in liver vs control [1]: down-regulated
- INOS transcript expression in liver vs control [1]: down-regulated
- NFκB transcript expression in liver vs control [1]: down-regulated
- VCAM transcript expression in liver vs control [1]: down-regulated
- reperfusion period survival vs control [2]: statistically improved
- overall survival vs control ([2]; 72 hours): improved compared to control although not statistically significant
- adhesion molecules expression [3]: no change
- intragraft neutrophil infiltration [3]: reduced
- renal function [3]: improved renal function
- lung tissue neutrophils vs control [4]: significantly decreased
- peripheral neutrophil response vs control [5]: attenuated
- central lymphocyte sequestration (CD3 staining) vs control [6]: significant central lymphocyte sequestration
- effect on IRI [7]: ameliorate IRI
